The source of these data is US20250304576A1 (Cancer Research Technology Limited, priority 2022, published 2025).

Structures are written as SMILES.

Test [1] has as its target T1, Recombinant IKKα (Homo sapiens, UniProt O15111).
T1 construct: purchased Millipore, Dundee, UK
T1 sequence (O15111 1-745): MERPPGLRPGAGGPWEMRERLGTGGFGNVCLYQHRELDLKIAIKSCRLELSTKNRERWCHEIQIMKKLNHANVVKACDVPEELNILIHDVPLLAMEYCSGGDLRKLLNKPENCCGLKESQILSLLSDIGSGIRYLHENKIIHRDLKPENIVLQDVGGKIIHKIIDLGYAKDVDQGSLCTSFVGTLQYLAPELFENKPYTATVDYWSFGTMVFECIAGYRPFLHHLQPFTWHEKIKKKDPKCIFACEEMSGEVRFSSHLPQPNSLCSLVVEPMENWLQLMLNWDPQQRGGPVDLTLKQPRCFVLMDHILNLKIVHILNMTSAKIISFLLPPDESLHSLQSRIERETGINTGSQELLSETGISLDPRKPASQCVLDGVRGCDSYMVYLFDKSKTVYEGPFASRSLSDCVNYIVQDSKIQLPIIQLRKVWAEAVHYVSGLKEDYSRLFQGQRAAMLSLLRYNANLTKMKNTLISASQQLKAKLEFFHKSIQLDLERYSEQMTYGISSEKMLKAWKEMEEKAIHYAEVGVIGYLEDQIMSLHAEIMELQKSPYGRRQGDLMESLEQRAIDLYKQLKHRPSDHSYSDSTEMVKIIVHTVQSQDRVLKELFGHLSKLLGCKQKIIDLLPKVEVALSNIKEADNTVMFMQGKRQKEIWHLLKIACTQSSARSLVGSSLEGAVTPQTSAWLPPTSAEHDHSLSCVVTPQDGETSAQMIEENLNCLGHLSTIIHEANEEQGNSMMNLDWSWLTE
Description: DELFIA IKKα kinase assay (apparent Ki, Cheng-Prusoff). It counts as biochemical. The conditions noted are these: DELFIA assay (first line of an example). Summed up:
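DELFIA time-resolved fluorescence (ex 340/em 615 nm) quantified phosphorylation of a biotinylated IκB-α Ser32 peptide (0.375 μM) by 37 nM recombinant IKKα or IKKβ. Reactions used 40 μM ATP, Tris pH 7.5 buffer with MgCl2, DTT and BSA, 60 min at 30° C. Cheng-Prusoff equation gave apparent Ki.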

Test [2] has as its target T2, CHUK (IKK alpha) (Homo sapiens, UniProt O15111).
T2 construct: purchased Life Technologies (assay performed by the vendor)
T2 sequence (O15111 1-745): T1 sequence (O15111 1-745)
Description: Adapta IKKα assay (TR-FRET ADP formation, Life Technologies). Format: biochemical. Conditions: Adapta assay (second line of an example). The procedure: IKKα and IKKβ inhibitory activity was determined using three different assays: a dissociation enhanced ligand fluorescent immunoassay (DELFIA) based on the protocol of HTScan™ IKKβ Kinase Assay (Cell Signaling Technology, USA); an Adapta IKKα assay (performed by Life Technologies); a Z′-LYTE™ IKKβ assay (performed by Life Technologies).
The reaction was performed in low-volume white 384-well plates (Corning model 4512).
The test compounds were screened in 1% DMSO (final) in the well. For 10 point titrations, 3-fold serial dilutions were conducted from the starting concentration of 50 mM.
The 2× CHUK (IKK alpha) kinase was prepared in 50 mM HEPES pH 7.5, 0.01% BRIJ-35, 10 mM MgCl2 and 1 mM EGTA. The final 10 μL kinase mixture consisted of 50-250 ng CHUK (IKK alpha) in 32.5 mM HEPES pH 7.5, 0.005% BRIJ-35, 5 mM MgCl2 and 0.5 mM EGTA. No substrate was required, as the assay measures the ability of a compound to inhibit the kinase's intrinsic ATPase activity.
5 μL of 2× Kinase mixture was incubated with 2.5 μL of ATP solution diluted to a 4×working concentration in water, in the presence of 100 nL of 100× test compound in 100% DMSO and 2.4 μL of 30 mM HEPES buffer.
After 30-second plate shake and 1-minute centrifuge at 1000×g, the resulting kinase reaction was allowed to incubate for 1 hour at room temperature before 5 μL of Detection Mix was added.
The Detection Mix, previously prepared in TR-FRET Dilution Buffer, consisted of EDTA (30 mM), Eu-anti-ADP antibody (6 nM) and an Alexa Fluor™ 647 labelled ADP tracer. The Detection Mix contained the EC60 concentration of tracer for 5-150 μM ATP.
After 30-second plate shake and 1-minute centrifuge at 1000×g, the Detection Mix was allowed to equilibrate at room temperature for 1 hour. Then the plate was read using a fluorescence plate reader configured for Adapta™ TR-FRET and the data analysed.
ADP formation was determined by calculating the emission ratio from the assay well. Therefore, the emission ratio was calculated by dividing the intensity of the tracer (acceptor) emission by the intensity of the Eu (donor) emission at 615 nm as shown in the equation below.
The IKKα and IKKb figures quoted in italicised form are from the Adapta assay described above.

For `Nc1n[nH]c2ccc(-c3ccnc4[nH]c(CN5CCCCCC5)cc34)cc12` [Example 265, 5-(2-(Azepan-1-ylmethyl)-1H-pyrrolo[2,3-b]pyridine-4-yl)-1H-indazol-3-amine], the Ki in test [1] is 0.091 µM. Further, the midpoint of inhibition in test [2], the IC50, lay at 0.013 µM.
On to `CN1CCCN(Cc2cc3c(-c4ccc5[nH]nc(N)c5c4)ccnc3[nH]2)CC1` [Example 266, 5-(2-((4-Methyl-1,4-diazepan-1-yl)methyl)-1H-pyrrolo[2,3-b]pyridin-4-yl)-1H-indazol-3-amine], for which the Ki in test [1] was determined as 0.046 µM. The concentration for half-maximal inhibition (IC50) in test [2] worked out at 0.011 µM.
For `Nc1n[nH]c2ccc(-c3ccnc4[nH]c(CCN5CCCCC5)cc34)cc12` [Example 267, 5-(2-(2-(Piperidin-1-yl)ethyl)-1H-pyrrolo[2,3-b]pyridine-4-yl)-1H-indazol-3-amine], in that order: 0.053 µM and 0.008 µM.
On to `Nc1n[nH]c2ccc(-c3ccnc4[nH]c(CCN5CCOCC5)cc34)cc12` [Example 268, 5-(2-(2-Morpholinoethyl)-1H-pyrrolo[2,3-b]pyridin-4-yl)-1H-indazol-3-amine], for which, in test [1], the Ki worked out at 0.011 µM. The IC50 in test [2] was found to be 0.001 µM.
For `Nc1n[nH]c2ccc(-c3ccnc4[nH]c(CCCN5CCCCC5)cc34)cc12` [Example 269, 5-(2-(3-(Piperidin-1-yl)propyl)-1H-pyrrolo[2,3-b]pyridin-4-yl)-1H-indazol-3-amine], in that order: 0.011 µM and 0.004 µM.
The corresponding values for `Nc1n[nH]c2ccc(-c3ccnc4[nH]c(CCCN5CCOCC5)cc34)cc12` [Example 271, 5-(2-(3-Morpholinopropyl)-1H-pyrrolo[2,3-b]pyridin-4-yl)-1H-indazlo-3-amine] are 0.011 µM and 0.001 µM.
The corresponding values for `Nc1n[nH]c2ccc(-c3ccnc4[nH]c(CC5CCNCC5)cc34)cc12` [Example 272, 5-(2-(Piperidin-4-ylmethyl)-1H-pyrrolo[2,3-b]pyridin-4-yl)-1H-indazol-3-amine] are 0.005 µM and 0.001 µM.

Usually IC50 stands for the point on the concentration scale where inhibition reaches its midpoint.
